Starred links: 1 amine or outer side, 2 acyl side, 3 side chain; linkers in the order of their positions; H or OH if unused. Non-standard residues stand in square brackets, D forms with d. Residues, ends and D or L forms follow the SMILES beside them. *: point of attachment. Tyr(Me) = O-methyl-tyrosine, COc1ccc(C[C@H](N[*:1])C(=O)[*:2])cc1; Phe(F5) = N[C@@H](Cc1c(F)c(F)c(F)c(F)c1F)C(=O)O; hArg = N=C(N)NCCCC[C@H](N)C(=O)O; 12Ado = NCCCCCCCCCCCC(=O)O; Nle = CCCC[C@H](N)C(=O)O; Orn = NCCC[C@H](N)C(=O)O; Abu = CC[C@H](N)C(=O)O; PhAc = O=C(Cc1ccccc1)*
Experiments:
[1] = nude mice, 10 μg B.i.d. s.c.
Text: Eight-weeks-old female athymic nude mice (Hsd: Athymic Nude-Foxn1^nu), obtained from Harlan Laboratories, were housed in sterile cages in a temperature-controlled room with a 12-hours light\12-hours dark schedule. Mice were fed autoclaved chow and water ad libitum. Human myelogenous leukemia cells KG-1, KG-1a, K-562 and THP-1 were used in log phase of growth. Xenografts were initiated by subcutaneous (s.c.) injection of 1×10^7 cells into the right flank of nude mice. For each cell line, once tumor reached an appropriate size (approx. 40 mm3), mice were randomly divided into two groups of 15 animals each, which received s.c. injections twice a day into the left flank of, phosphate-buffered saline (PBS) ([…] containing 0.1% DMSO, or MIA-602 at a dose of 10 μg. […] At the end of the experiment, mice were sacrificed under carbon dioxide followed by cervical dislocation. All animal procedures were performed in compliance with the Guide for the Care and Use of Laboratory Animals published by the NIH, and approved by the Animal Care and Use Committee of the University of Miami.

pituitary = details: biological activity on the pituitary; cited from earlier work
KG-1 cells = assay: Cellular uptake of fluorescently labeled MIA-602; details: 2.5 μM Alexa Fluor 555 labelled peptide, 30 minutes
Description: For the detection of cellular uptake, MIA-602 was conjugated to Alexa Fluor 555 according to the manufacturer's instructions (Alexa Fluor 555 NHS ester, tris(triethylammonium salt, Life Technologies, Carlsbad, Calif.). Cells were incubated with 2.5 μM fluorescently labelled peptide or unconjugated fluorophore for 30 minutes (1×10^6 cells/tube). At the end of incubation, cells were washed 3 times in PBS, fixed in 4% paraformaldehyde, mounted, and imaged as described above. ImageJ software (NIH, Bethesda, Md.) was used to recolor the images, for the purpose of enhancing visual perception of cellular uptake.

[2] = target: GHRH splice variant 1 receptor (human)
[3] = target: GHRH splice variant 1 receptor (human); remark: listed apart in the source
[4] = target: GHRH splice variant 1 receptor (human); remark: listed apart in the source
[5] = 30 days, treated animals vs those bearing no tumors

For `CCCC[C@H](NC(=O)[C@@H](NC(=O)[C@H](CC(=O)O)NC(=O)[C@H](CCC(N)=O)NC(=O)[C@H](CC(C)C)NC(=O)[C@H](CC(C)C)NC(=O)[C@H](CCCN)NC(=O)[C@H](Cc1c[nH]cn1)NC(=O)[C@H](C)NC(=O)[C@H](CO)NC(=O)[C@H](CC(C)C)NC(=O)[C@H](CCC(N)=O)NC(=O)[C@H](CC)NC(=O)[C@H](CC(C)C)NC(=O)[C@@H](NC(=O)[C@H](CCCN)NC(=O)[C@H](Cc1c[nH]cn1)NC(=O)[C@H](Cc1ccc(OC)cc1)NC(=O)[C@H](CCCCNC(=N)N)NC(=O)[C@H](C)NC(=O)[C@@H](NC(=O)[C@H](Cc1c(F)c(F)c(F)c(F)c1F)NC(=O)[C@@H](NC(=O)[C@H](C)NC(=O)[C@H](CC(=O)O)NC(=O)[C@@H](CCCNC(=N)N)NC(=O)[C@H](Cc1ccc(O)cc1)NC(=O)CCCCCCCCCCCNC(=O)Cc1ccccc1)[C@@H](C)CC)[C@@H](C)O)C(C)C)[C@@H](C)CC)C(=O)N[C@H](CCCNC(=N)N)C(=O)N[C@@H](CCCCNC(=N)N)C(N)=O` [MIA-602, [PhAc-Ada^0-Tyr^1, D-Arg^2, Fpa5^6, Ala^8, Har^9, Tyr(Me)^10, His^11, Orn^12, Abu^15, His^20, Orn^21, Nle^27, D-Arg^28, Har^29]hGH-RH(1-29)NH2] ({PhAc-12Ado}-Y[dR]DAI[Phe(F5)]TA[hArg]Y(Me)H[Orn]VL[Abu]QLSAH[Orn]LLQDI[Nle][dR][hArg]-NH2), the body weights [1, 5] was “No significant differences”, the “weights of various organs (liver, spleen, and kidneys)” value [1, 5] was “No significant differences” and the “macroscopic observation of organs” value ([1]; after treatment) was “no differences”.

For “Tyr-Ala-Asp-Ala-Ile^5-Phe-Thr-Asn-Ser-Tyr^10-Arg-Lys-Val-Leu-Gly^15-Gln-Leu-Ser-Ala-Arg^20-Lys-Leu-Leu-Gln-Asp^25-Ile-Met-Ser-Arg^29-NH2 [GHRH(1-29)]”, the “potency retained relative to native GHRH” value (pituitary) is given as no less than 50%.

For “fluorescently labeled MIA-602: MIA-602 conjugated to Alexa Fluor 555 for the detection of cellular uptake ({PhAc-12Ado}-Y[dR]DAI[Phe(F5)]TA[hArg][Tyr(Me)]H[Orn]VL[Abu]QLSAH[Orn]LLQDI[Nle][dR][hArg]-NH2; also: Alexa Fluor 555 conjugated via NHS ester, site not given here)”, the cellular uptake (KG-1 cells) was “not observed”.

In the case of {PhAc-12Ado}-Y[dR]DAI[Phe(F5)]TA[hArg][Tyr(Me)]H[Orn]VL[Abu]QLSAH[Orn]LLQDI[Nle][dR][hArg]-NH2, the fold-change in expression of cell death-related genes (qPCR array, 24 h MIA-602) [2] is reported as 28.9 fold, the decrease of phosphorylation of Akt (Western blot, 8 h incubation with MIA-602) [3] is reported as 85% and the reduction in cell proliferation (cell count, 5 µM MIA-602, 24 and 48 hours) [4] is reported as 80%.

Reference: patent US20200276273A1, “METHOD FOR TREATING MYELOID LEUKEMIA” (UNIVERSITY OF MIAMI, priority 2017, published 2020)
